Series [1] deals with IL-8 release, 16HBE-16o^− cells. As to the kind of experiment: IL-8 release (ELISA) in IL-1β stimulated 16HBE-16o− cells. It is filed as cell-based. The following applies: Homo sapiens, 1 ng/ml IL-1β, read-out: EC50 for inhibition of the release of IL-8. The protocol:
The human airway epithelial cell line A549 may be employed to study resveratrol inhibition of the release of IL-8 (interleukin 8) and GM-CSF (granulocyte macrophage-colony stimulating factor) by a 1 ng/ml stimulation with IL-1β (interleukin 1β). A549 cells, BEAS-2B cells and 16HBE-16o^− cells were stimulated with 1 ng/ml levels of IL-1β in the presence of resveratrol.
Cells, including the A549 cells, were cultured in Dulbecco's modified Eagle's medium (DMEM) 10% (v/v) fetal calf serum (FCS), 100 μg/ml penicillin and 100 μg/ml streptomycin. IL-8 release was measured by commercially available ELISA kit (R&D Systems).
In general terms: An ELISA detects its analyte on a solid surface through an enzyme-linked reagent.

For series [2], the system named is NF-κB dependent transcription. Briefly: NF-κB luciferase reporter in stably transfected A549 cells. It is filed as cell-based, human. Here is the method: The expression of inflammatory genes was then evaluated in cells transformed with luciferase reporter genes containing sites for transcription factors (Tf, Tfs). The A549 cells were stably transfected by routine methods with luciferase reporters containing the transcription factors NF-κB, TRE (AP-1, TPA responsive element) and CRE (cAMP responsive element). Luciferase activity of cell lysates resuspended in […] cell lysis buffer mixed (40 mml resuspended lysate: 40 mml assay reagent) was measured using the Luciferase Assay System (Promega), with emitted light measured by a Turner DesignsTD-20/20 luminometer (Steptech Instruments Ltd., Stevenage, U.K.)
Background: In a reporter assay the amount or activity of a reporter protein is the signal.

Series [3] deals with Patients with asthma. Briefly: Oral resveratrol clinical evaluation in asthma (Example 3). The following applies: oral, 200, 2000 or 3000 mg/day, about six months. It counts as in vivo, human. The protocol:
Resveratrol is evaluated clinically for efficacy in treating asthma. The methods of the following references are generally used in the evaluation of asthmatic disease: Wohl et al. (2000) N. Engl. J. Med. 343(15):1113-4; Agertoft et al. (2000) N. Engl. J. Med. 343(15):1064-9. Patients with asthma are treated once or more per day with gelatin capsules containing resveratrol. Patients are divided randomly and blindly into four approximately equal groups that receive either 0 (placebo), 200, 2000, or 3000 mg/day resveratrol for about six months in oral doses of 0, 50, 500, or 750 mg administered 4 times daily for about six months. Patients are medically monitored for clinical symptoms of asthma throughout the study, including frequency and severity of acute asthma attacks. […] In addition exhaled nitric oxide (NO) and carbon monoxide (CO) levels may be measured at more frequent intervals, such as every other week. Forced expiratory volume (FEV) and forced inspiratory volume (FIV) are also evaluated to measure airway patency as a direct measure of clinical morbidity and to determine correlation the histopathologic and other indicators of clinical disease, such as exhaled NO Immunhistopathologic examination of lung tissue biopsy samples taken at the same intervals as the blood samples are also examined for histopathologic evidence of extent and histology of inflammation.

Series [4] deals with COPD patients. As to the kind of experiment: Oral resveratrol clinical evaluation in COPD (Example 8). It counts as in vivo, human. The following applies: oral, 200, 2000 or 3000 mg/day, about six months. Here is the method: Resveratrol is evaluated clinically for efficacy in treating COPD. The study is generally patterned after the asthma studies with modifications appropriate to the clinical and histopathologic evaluation of COPD disease, and the references listed in the preceding examples may be applied as appropriate. Smokers are treated once or more per day with gelatin capsules containing resveratrol. The different populations of COPD patients are subdivided into subpopulations: emphysema patients, bronchitis patients and other COPD. Patients are divided randomly and blindly into four approximately equal groups that receive either 0 (placebo), 200, 2000, or 3000 mg/day resveratrol for about six months in oral doses of 0, 50, 500, or 750 mg administered 4 times daily for about six months.
Patients are medically monitored for clinical symptoms of COPD throughout the study, including frequency and severity of hypoxemic and respiratiry acidotic exacerbations. In addition, induced sputum samples are obtained from the patients at days 0, 30, 90, and 180 and neutrophil counts are performed and the samples are assayed for IL-8 and myeloperoxidase by routine methods. Forced expiratory volume (FEV) and forced inspiratory volume (FIV) are also evaluated to measure airway patency as a direct measure of clinical morbidity and to determine correlation the histopathologic and other indicators of clinical disease. […]

Series [5] relates to Smokers with no disease or mild COPD. As to the kind of experiment: Oral resveratrol for chemoprevention of COPD in smokers (Example 10). It is filed as in vivo, human. As to conditions: 2 to 5 years. The protocol:
Resveratrol is evaluated clinically for efficacy in chemoprevention of COPD in smokers. The study is generally patterned after the asthma studies with modifications appropriate to the clinical and histopathologic evaluation of COPD disease, and the references listed in the preceding examples may be applied as appropriate. Smokers with no disease or mild COPD are treated once or more per day with gelatin capsules containing resveratrol. The population of smokers are subdivided into subpopulations: clinically and histopathologically disease free, clinically asymptomatic with histopathologic inflammation and mildly COPD symptomatic, meaning some chronic bronchitis but no pulmonary impairment causing hypoxemia or acidosis. Each subpopulation is divided randomly and blindly into four approximately equal groups that receive either 0 (placebo), 200, 2000, or 3000 mg/day resveratrol […] in oral doses of 0, 50, 500, or 750 mg administered 4 times daily for 2 to 5 years. […]
Patients are medically monitored for clinical symptoms of COPD throughout the study, including onset of symptoms and frequency and severity thereof. […] Forced expiratory volume (FEV) and forced inspiratory volume (FIV) are also evaluated to measure airway patency as a direct measure of clinical morbidity and to determine correlation the histopathologic and other indicators of clinical disease. […]

The record followed here is US6878751B1, “Administration of resveratrol to treat inflammatory respiratory disorders” (Imperial College of Science Technology and Medicine, priority 2000, dated 2005).

Regarding `Oc1ccc(/C=C/c2cc(O)cc(O)c2)cc1` [Resveratrol, 3,5,4′-trihydroxystilbene], the concentration giving a half-maximal response (EC50) in series [1] was found to be 8.9 ± 3.5 µM; in series [2] (Homo sapiens, read-out: EC50 for inhibition of NF-κB dependent transcription), 21 ± 7 µM. Moreover, the “extent of inhibition of NF-κB dependent transcription” value in series [2] is reported as “completely”. In series [3], the “efficacy in treating asthma” value is listed as “effective for treating asthma”. For the same molecule, the “efficacy in treating COPD” value in series [4] is reported as “effective for treating COPD”. Also, the side effects entry in series [5] (oral, relative to those expected from steroid administration) is given as “without significant side effects”. The “efficacy in chemoprevention of COPD in smokers” value in series [5] (oral, 200, 2000 or 3000 mg/day) is on record as “effective for chemoprevention of COPD in smokers”.

As a reminder, the EC50 is the midpoint of the concentration-response curve.
